What was measured:
[1] = target: T1, CVB3 3C^pro (Coxsackievirus B3, UniProt Q5UEA2); test: FRET peptide cleavage assay; format: biochemical
[2] = target: HCoV-NL63 M^pro (Human coronavirus NL63, UniProt P0C6X5); test: FRET peptide cleavage assay; format: biochemical
[3] = target: EV-A71 3C^pro (Human enterovirus 71 (strain BRCR), UniProt Q66478); details: read-out: EV-A71 3Cpro; inhibitor
[4] = target: T1, CVB3 3C^pro; test: biochemical
[5] = system: EV-A71; test: microbe, parasite or virus in culture; parameters: species or system Huh-T7; details: Enterovirus A, EVA71, read-out: EV-A71 replicon *
[6] = system: CVB3 (Nancy); test: microbe, parasite or virus in culture; parameters: species or system Huh-T7; details: Enterovirus B, CVB3, read-out: CVB3 replicon *

HCoV-NL63 M^pro, sequence (P0C6X5 2940-3242): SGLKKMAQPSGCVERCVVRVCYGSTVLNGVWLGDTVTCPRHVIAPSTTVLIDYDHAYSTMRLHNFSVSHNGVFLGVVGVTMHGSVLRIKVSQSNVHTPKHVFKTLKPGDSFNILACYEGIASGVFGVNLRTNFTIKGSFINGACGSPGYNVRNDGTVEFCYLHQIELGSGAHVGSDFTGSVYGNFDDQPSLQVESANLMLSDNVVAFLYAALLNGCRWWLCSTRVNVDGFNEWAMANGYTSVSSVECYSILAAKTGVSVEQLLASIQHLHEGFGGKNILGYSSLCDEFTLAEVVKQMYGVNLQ
EV-A71 3C^pro, sequence (Q66478 1549-1731): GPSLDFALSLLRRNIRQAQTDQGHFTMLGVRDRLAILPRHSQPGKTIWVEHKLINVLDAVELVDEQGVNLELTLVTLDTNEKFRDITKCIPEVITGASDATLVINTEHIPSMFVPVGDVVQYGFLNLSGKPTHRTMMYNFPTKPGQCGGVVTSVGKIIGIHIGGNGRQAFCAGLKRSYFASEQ

Row | SMILES | IC50 [1] | IC50 [2] | IC50 [3] | IC50 [4] | EC50 [5] | EC50 [6]
1 | O=C(/C=C/c1ccccc1)N[C@@H](Cc1ccccc1)C(=O)N[C@@H](C[C@@H]1CCNC1=O)C(=O)C(=O)NCc1ccccc1 [11a, (S)-N-benzyl-3-((S)-2-cinnamamido-3-phenylpropanamido)-2-oxo-4-((S)-2-oxopyrrolidin-3-yl)butanamide] | 6.56 ± 3.1 µM | > 50 µM | – | – | – | –
2 | CCCCNC(=O)C(=O)[C@H](C[C@@H]1CCNC1=O)NC(=O)[C@H](Cc1ccccc1)NC(=O)/C=C/c1ccccc1 [11b] | – | – | 2.38 ± 0.58 µM | 1 ± 0.35 µM | – | –
3 | CC(C)(C)NC(=O)C(=O)[C@H](C[C@@H]1CCNC1=O)NC(=O)[C@H](Cc1ccccc1)NC(=O)/C=C/c1ccccc1 [11c] | – | – | 19 ± 5.79 µM | 9.86 ± 2.68 µM | – | –
4 | CC(C)CNC(=O)C(=O)[C@H](C[C@@H]1CCNC1=O)NC(=O)[C@H](CC(C)C)NC(=O)/C=C/c1ccccc1 [11d] | – | – | 17.7 ± 8.78 µM | 6.5 ± 0.58 µM | – | –
5 | COC(=O)CNC(=O)C(=O)[C@H](C[C@@H]1CCNC1=O)NC(=O)[C@H](Cc1ccccc1)NC(=O)/C=C/c1ccccc1 [11e] | – | – | 11.1 ± 2.64 µM | 9.91 ± 1.84 µM | – | –
6 | CC(C)(C)OC(=O)N[C@@H](C[C@@H]1CCNC1=O)C(=O)C(=O)NCc1ccccc1 [11f, tert-Butyl ((S)-4-(benzylamino)-3,4-dioxo-1-((S)-2-oxopyrrolidin-3-yl)butan-2-yl)carbamate] | > 50 µM | > 50 µM | – | – | – | –
7 | O=C(CCc1ccccc1)N[C@@H](Cc1ccccc1)C(=O)N[C@@H](C[C@@H]1CCNC1=O)C(=O)C(=O)NCc1ccccc1 [11g] | – | – | 4.57 ± 1.04 µM | 3.5 ± 1.06 µM | – | –
8 | O=C(NCc1ccccc1)C(=O)[C@H](C[C@@H]1CCNC1=O)NC(=O)[C@H](Cc1ccccc1)NC(=O)c1ccc2c(c1)OCCO2 [11h] | – | – | 4.75 ± 2.73 µM | 3.66 ± 0.79 µM | – | –
9 | O=C(NCc1ccccc1)C(=O)[C@H](C[C@@H]1CCNC1=O)NC(=O)[C@H](Cc1ccccc1)NC(=O)c1cccc2c1OCCO2 [11i] | – | – | 9.74 ± 3.88 µM | 4.82 ± 1.17 µM | – | –
10 | O=C(NCc1ccccc1)C(=O)[C@H](C[C@@H]1CCNC1=O)NC(=O)[C@H](Cc1ccccc1)NC(=O)c1cc2ccccc2o1 [11j] | – | – | 11.3 ± 6.52 µM | 9.19 ± 2.99 µM | – | –
11 | O=C(NCc1ccccc1)C(=O)[C@H](C[C@@H]1CCNC1=O)NC(=O)[C@H](Cc1ccccc1)NC(=O)c1cc2ccccc2s1 [11k] | – | – | > 50 µM | 18.6 ± 0.58 µM | – | –
12 | O=C(NCc1ccccc1)C(=O)[C@H](C[C@@H]1CCNC1=O)NC(=O)[C@H](Cc1ccccc1)NC(=O)c1cn2cc(Br)ccc2n1 [11l] | – | – | > 50 µM | 30.8 ± 12.9 µM | – | –
13 | O=C(/C=C/c1ccccc1)N[C@@H](Cc1ccc(F)cc1)C(=O)N[C@@H](C[C@@H]1CCNC1=O)C(=O)C(=O)NCc1ccccc1 [11m, (S)-N-benzyl-3-((S)-2-cinnamamido-3-(4-fluorophenyl)propanamido)-2-oxo-4-((S)-2-oxopyrrolidin-3-yl)butanamide] | 8.69 ± 1.28 µM | > 50 µM | – | – | – | –
14 | CC(C)C[C@H](NC(=O)/C=C/c1ccccc1)C(=O)N[C@@H](C[C@@H]1CCNC1=O)C(=O)C(=O)NCc1ccccc1 [11n, (S)-N-((S)-4-(benzylamino)-3,4-dioxo-1-((S)-2-oxopyrrolidin-3-yl)butan-2-yl)-2-cinnamamido-4-methylpentanamide] | 3.82 ± 1.21 µM | 1.08 ± 0.09 µM | – | – | – | –
15 | CCCC[C@H](NC(=O)/C=C/c1ccccc1)C(=O)N[C@@H](C[C@@H]1CCNC1=O)C(=O)C(=O)NCc1ccccc1 [11o, (S)-N-((S)-4-(benzylamino)-3,4-dioxo-1-((S)-2-oxopyrrolidin-3-yl)butan-2-yl)-2-cinnamamidohexanamide] | 5.2 ± 0.28 µM | > 50 µM | – | – | – | –
16 | C#CC[C@H](NC(=O)/C=C/c1ccccc1)C(=O)N[C@@H](C[C@@H]1CCNC1=O)C(=O)C(=O)NCc1ccccc1 [11p, (S)-N-((S)-4-(benzylamino)-3,4-dioxo-1-((S)-2-oxopyrrolidin-3-yl)butan-2-yl)-2-cinnamamidopent-4-ynamide] | 8.93 ± 2.39 µM | 17.4 ± 3.97 µM | – | – | – | –
17 | O=C(/C=C/c1ccccc1)N[C@H](C(=O)N[C@@H](C[C@@H]1CCNC1=O)C(=O)C(=O)NCc1ccccc1)C1CC1 [11q, (S)-N-benzyl-3-((S)-2-cinnamamido-2-cyclopropylacetamido)-2-oxo-4-((S)-2-oxopyrrolidin-3-yl)butanamide] | 15.4 ± 4.12 µM | 11.5 ± 5.05 µM | – | – | – | –
18 | O=C(/C=C/c1ccccc1)N[C@@H](CC1CCCCC1)C(=O)N[C@@H](C[C@@H]1CCNC1=O)C(=O)C(=O)NCc1ccccc1 [11r, (S)-N-benzyl-3-((S)-2-cinnamamido-3-cyclohexylpropanamido)-2-oxo-4-((S)-2-oxopyrrolidin-3-yl)butanamide] | 0.95 ± 0.15 µM | 12.3 ± 3.56 µM | – | – | 0.85 µM | 0.45 µM
19 | O=C(/C=C/c1ccccc1)N[C@@H](CC1CC1)C(=O)N[C@@H](C[C@@H]1CCNC1=O)C(=O)C(=O)NCc1ccccc1 [11s, (S)-N-benzyl-3-((S)-2-cinnamamido-3-cyclopropylpropanamido)-2-oxo-4-((S)-2-oxopyrrolidin-3-yl)butanamide] | 4.25 ± 1.4 µM | 1.37 ± 0.35 µM | – | – | – | –
20 | O=C(/C=C/c1ccccc1)N[C@@H](CC1CCC1)C(=O)N[C@@H](C[C@@H]1CCNC1=O)C(=O)C(=O)NCc1ccccc1 [11t, (S)-N-benzyl-3-((S)-2-cinnamamido-3-cyclobutylpropanamido)-2-oxo-4-((S)-2-oxopyrrolidin-3-yl)butanamide] | 4.78 ± 1.13 µM | 3.43 ± 2.45 µM | – | – | – | 2.2 µM
21 | O=C(/C=C/c1ccccc1)N[C@@H](CC1CCCC1)C(=O)N[C@@H](C[C@@H]1CCNC1=O)C(=O)C(=O)NCc1ccccc1 [11u, (S)-N-benzyl-3-((S)-2-cinnamamido-3-cyclopentylpropanamido)-2-oxo-4-((S)-2-oxopyrrolidin-3-yl)butanamide] | 1.93 ± 0.43 µM | 5.41 ± 2.31 µM | – | – | 3.65 µM | 4.9 µM
